Data on five compounds can be found in patent US10703752B2, “Integrin antagonists” (OXURION NV, priority 2018, dated 2020).

Assay [1] has as its target platelet integrin αIIbβ3 (Homo sapiens, UniProt P05106+P08514). In words: Competition ELISA, integrin antagonism (fibronectin ligand). Particulars: fibronectin binding to coated receptor. On the procedure:
(§1) Suitable methods for determining EC50 values are known to the skilled person. One particular method to determine the value for a particular compound is a competition ELISA assay wherein the integrin receptor under investigation (in particular human αvβ3 integrin receptor) is coated to a multi-well plate using a 4 μg/mL solution and the wells are blocked with 5% bovine serum albumin. The fibronectin concentration to be used in the assay is determined experimentally in a separate experiment by testing the binding of various fibronectin concentrations to the coated integrin under investigation, the concentration of fibronectin for the assay being the one that gives 80% of maximal binding. The determined concentration of human fibronectin is then added to the coated and blocked wells in the presence of increasing concentrations of the compound. After 2 h incubation at 37° C., the wells are washed and the bound fibronectin is detected with the help of a specific reagent, such as a detectable anti-fibronectin antibody. Quantitative analysis of the data is then performed to determine EC50 values, i.e. the concentration of the compound that reduces fibronectin binding to the coated receptor by 50%.
(§2) The principle of the competition ELISA assays used here was as follows: (1) the integrin receptor under investigation was coated to 96-well plates and the wells were blocked, (2) an integrin ligand (fibronectin) was then added to the relevant wells in the presence of increasing concentrations of a given integrin antagonist, (3) after a defined amount of time, the wells were washed and the bound ligand was detected with the help of a specific reagent. Quantitative analysis of the data was then performed to determine EC50 values, i.e. the concentration of the integrin antagonist that reduces ligand binding to the coated receptor by 50%.
Background: An ELISA detects its analyte on a solid surface through an enzyme-linked reagent.

For assay [2], the target named is α5β1 integrin receptor (Homo sapiens, UniProt P05556+P08648). The assay is described as above. The conditions noted are these: fibronectin binding to coated receptor. On the procedure: as §1, §2
Assay [3] has as its target αvβ3 integrin receptor (Homo sapiens, UniProt P05106+P06756). The description is as above. The conditions noted are these: fibronectin binding to coated receptor, read-out: EC50 ανβ3. As to the method:
as §1, §2

Assay [4] has as its target αvβ5 integrin receptor (Homo sapiens, UniProt P06756+P18084). Described as above. Particulars: fibronectin binding to coated receptor, read-out: EC50 ανβ5. As to the method:
as §1, §2

For assay [5], the system named is human umbilical vein endothelial cells (HUVECs). As to the kind of experiment: ORIS Cell Migration Assay. Particulars: HUVEC, fibronectin-coated plates, 24 h migration. The class given is cell-based. As to the method: Endothelial cell wound healing is mediated by endothelial cell migration and proliferation, both critical components of the angiogenesis process, and is routinely used as a surrogate model for in vitro angiogenic potential. The ORIS™ Cell Migration Assay was used with human umbilical vein endothelial cells (HUVECs).
HUVEC cells (SCCE-001, Cat no 1000519, Merck Chemicals) were cultured in T175 flasks (Cat no 353112, falcon) in EndoGro Growth Medium (SCME-003, Merck Chemicals) and split when they reached 90-100% confluence.
For the assay, cells were used at passage 2 to 4 after thawing and at 80-90% confluency. At the beginning of the day, the fibronectin-coated Oris™ Cell Migration Assay Plates (Cat no # CMAFN.101, AMS Biotechnology) were removed from refrigeration and placed at RT for 1 h. The Oris Detection Masks were washed with ethanol and applied to the bottom of the 96-well plates, aligning the Al corner of the masks with the Al corner of the plates. Cells were harvested by trypsinization (Cat no 25300, Gibco), centrifuged at 250 g for 5 mm and suspended at 0.4·10^6 per mL in complete EndoGro growth medium. 100 μL of the cell suspension were added to the wells and the plates were incubated for 6 h at 37° C. and 5% C02 to allow cells to adhere.
At the end of the incubation, the stopper tool was washed with ethanol and used to remove the stoppers from all the wells except the reference wells. […]
Just prior to the end of the incubation, a 4 μg/mL calcein AM (Cat no 354217, Beckton Dickinson) solution was prepared in pre-warmed HBSS (Cat no 14025, Gibco). […] After incubation the fluorescence was read at 494 nm excitation and 517 nm emission wavelengths using the Flexstation and the SofiMax Pro 5.4.5 software (Molecular Devices). The fluorescence was read from the bottom of the plates with the lid on to keep them sterile. The masks were then removed and pictures were taken with the Axiovert fluorescence microscope (Zeiss) using reflected light, GFP and a 2.5× objective.

The test system of assay [6] is RPE-choroid sclera explants. In words: Murine choroidal explant assay (vessel sprouting). The class given is cell-based, C57BL/6J mice. Particulars: for IC50: Mus musculus, murine choroid explants in fibrin gel, 3 to 4 days, read-out: IC50 vessel outgrowth. An excerpt: The assay is based on a murine microvascular angiogenesis explant model, which closely mimics in viva choroidal angiogenesis. The major advantage of this organotypical culture model is that cells are kept within their normal environment, thereby preserving cell-cell interactions, while maintaining a higher level of experimental control than in animal models. The choroidal explant model or briefly EMCA model allows for rapid evaluation of new anti-angiogenic therapeutics, with the additional benefit of excluding the potential lack of exposure often encountered when testing small molecules in animal eyes. RPE-choroid sclera explants (hereinafter referred to as choroid explants) are embedded in a three-dimensional fibrinogen/fibrin gel. Addition of serum-containing medium induces extensive endothelial cell sprout outgrowth into the matrix after 3 to 4 days in culture.
All experiments were performed using 4 to 5-weeks old male C57BL/6J mice (Charles River Laboratories France), housed under standard laboratory conditions according to a normal day/night rhythm with ad libitum access to food and water. All animal experiments were approved by the Institutional Ethical Committee of KU Leuven.
After initial optimization, a general protocol was set-up. Briefly, after euthanasia of the mice using pentobarbital (200 mg/kg, IP, Dolethal, Vetoquinol) followed by cervical dislocation, eyes were immediately enucleated with curved forceps and kept in ice-cold DPBS (cat no 14190-136, Gihco). Under a stereomicroscope, the eye was placed in a drop of ice-cold DPBS, and held in place with forceps on an ice-cold petri dish. The cornea and lens were removed via a circumferential incision at the limbus (cornea-sclera boundary) using Vannas spring scissors (Fine Science Tools). Next, redundant muscles were removed from the remaining eyeball and a cut was made from the edge of the posterior chamber towards the optic nerve head. […]

Molecules are shown by their SMILES. Structures can show the parent of a compound that is named as a salt. Some results are limits rather than exact numbers.

On to `Cc1nc(NC[C@H](NC(=O)OC(C)C(=O)O)C(=O)O)c(C)c(N2CCC(c3ccc4c(n3)NCCC4)CC2)n1` (stereo partly drawn) [cpd3, (2S)-2-{[(1-carboxyethoxy)carbonyl]amino}-3-({2,5-dimethyl-6-[4-(5,6,7,8-tetrahydro-1,8-naphthyridin-2-yl)piperidin-1-yl]pyrimidin-4-yl}amino)propanoic acid, dihydrochloride], for which the half-maximal effective concentration (EC50) in assay [1] was > 25 nM; in assay [2], 1 to 10 nM; in assay [3], 1 to 10 nM; in assay [4], 1 to 10 nM. Moreover, the values for the IC50 in assay [5] and in assay [6] were < 1000 nM and ~1000 nM, respectively. In addition, the “endothelial sprout formation, in words” value in assay [6] (murine choroid explants) is “inhibition of vessel sprouting”.

On to `COC(=O)CCOC(=O)N[C@@H](CNc1nc(C)nc(N2CCC(c3ccc4c(n3)NCCC4)CC2)c1C)C(=O)O` [cpdA, (2S)-3-({2,5-dimethyl-6-[4-(5,6,7,8-tetrahydro-1,8-naphthyridin-2-yl)piperidin-1-yl]pyrimidin-4-yl}amino)-2-{[(3-methoxy-3-oxopropoxy)carbonyl]amino}propanoic acid trifluoro acetate, reference compound], for which the EC50 in assay [1], in assay [2], in assay [3] and in assay [4] was 1 to 10 nM each time.

Take `Cc1nc(NC[C@H](NC(=O)OCc2ccccc2)C(=O)O)c(C)c(N2CCC(c3ccc4c(n3)NCCC4)CC2)n1` [cpdB, reference compound]: the concentration for a half-maximal effect (EC50) in assay [1] was 1 to 10 nM; in assay [2] it was 1 to 10 nM; in assay [3], 10 to 25 nM; in assay [4], 1 to 10 nM. Further, the half-maximal inhibitory concentration (IC50) in assay [5] is < 1000 nM; in assay [6], ~1000 nM.

Regarding `Cc1nc(NC[C@H](NC(=O)OCC(=O)O)C(=O)O)c(C)c(N2CCC(c3ccc4c(n3)NCCC4)CC2)n1` [cpd2, (2S)-2-([(carboxymethoxy)carbonyl]amino)-3-({2,5-dimethyl-6-[4-(5,6,7,8-tetrahydro-1,8-naphthyridin-2-yl)piperidin-1-yl]pyrimidin-4-yl}amino)propanoic acid dihydrochloride], the EC50 was > 25 nM in assay [1], 1 to 10 nM in assay [2], 1 to 10 nM in assay [3] and 1 to 10 nM in assay [4]. Further, in assay [5], the IC50 is < 1000 nM.

For the compound `Cc1nc(NC[C@H](NC(=O)OCCC(=O)O)C(=O)O)c(C)c(N2CCC(c3ccc4c(n3)NCCC4)CC2)n1` [cpd1, (2S)-2-{[(2-carboxyethoxy)carbonyl]amino}-3-({2,5-dimethyl-6-[4-(5,6,7,8-tetrahydro-1,8-naphthyridin-2-yl)piperidin-1-yl]pyrimidin-4-yl}amino)propanoic acid], the concentration giving a half-maximal response (EC50) in assay [1] was > 25 nM; in assay [2], 1 to 10 nM; in assay [3], 1 to 10 nM; in assay [4] it was 1 to 10 nM.

By EC50 is commonly meant the concentration that produces a half-maximal response. Usually IC50 stands for the point on the concentration scale where inhibition reaches its midpoint.
